Reference: article PMC3984052 (Bioorganic & medicinal chemistry, 2014)

What follows are molecules tested on PrP^C in N2a-cl3 neuroblastoma cells that overexpress PrP^C. Details: values not given.
Format: cell-based, mouse

Compound | Potency (EC50 by ELISA) in N2a-cl3 cells, in words
COc1cc(OC)cc(C(=O)Nc2ccc(I)cn2)c1 [IND85671] | potent
NC(=O)c1ccccc1NC(=O)c1cccnc1N1CCCCC1 [IND87406] | potent
CCOC(=O)c1[nH]c2c(c1C)C(=O)CC(c1ccco1)C2 (stereo not drawn) [IND87564] | potent
